From patent US8198273B2, “Compounds and methods for kinase modulation, and indications therefor” (Plexxikon Inc., priority 2009, dated 2012) come the findings set out here.

pIC50: −log10 of the molar value.

Data set [1] addresses B-Raf V600E (Homo sapiens, UniProt P15056, V600E). Put plainly: B-Raf V600E biochemical kinase inhibition (AlphaScreen, biotin-MEK1 substrate). The note with it: 100 μM ATP. Put shortly:
(§1)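 Eight-point compound series (made from a 0.1 mM DMSO stock) tested against each Raf enzyme with biotin-MEK1 substrate and 100 μM final ATP.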
Background: Bead proximity is the source of the signal in Alpha formats.

The target of data set [2] is c-Raf-1 (Homo sapiens, UniProt P04049). Put plainly: c-Raf-1 biochemical kinase inhibition (AlphaScreen, biotin-MEK1 substrate). The following applies: 100 μM ATP. The method, boiled down: as §1
Sequence of c-Raf-1 (P04049 whole entry): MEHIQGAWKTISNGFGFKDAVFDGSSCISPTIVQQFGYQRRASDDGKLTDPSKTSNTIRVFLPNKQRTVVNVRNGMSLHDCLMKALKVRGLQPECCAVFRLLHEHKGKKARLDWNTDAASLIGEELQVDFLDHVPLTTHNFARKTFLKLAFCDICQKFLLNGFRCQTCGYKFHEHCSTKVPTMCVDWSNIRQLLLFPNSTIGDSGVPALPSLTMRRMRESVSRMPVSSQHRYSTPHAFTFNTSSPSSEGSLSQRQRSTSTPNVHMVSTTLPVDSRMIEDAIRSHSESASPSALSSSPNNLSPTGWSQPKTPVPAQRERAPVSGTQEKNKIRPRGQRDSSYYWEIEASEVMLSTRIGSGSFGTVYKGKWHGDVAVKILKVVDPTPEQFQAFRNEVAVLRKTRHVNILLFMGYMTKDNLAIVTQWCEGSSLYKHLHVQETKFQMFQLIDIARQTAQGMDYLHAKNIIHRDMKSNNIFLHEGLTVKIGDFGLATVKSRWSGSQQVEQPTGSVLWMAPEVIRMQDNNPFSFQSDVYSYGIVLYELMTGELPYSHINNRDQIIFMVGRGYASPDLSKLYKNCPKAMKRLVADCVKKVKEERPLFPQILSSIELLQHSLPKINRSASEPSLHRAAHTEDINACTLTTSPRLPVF
The nature of data set [3]: Relative solubility by turbidity in aqueous buffers of varying pH. It is filed as physicochemical. The following applies: for turbidity threshold (L, M, H) 7.4: HEPES pH 7.4; for turbidity threshold (L, M, H) 4.5: SIF pH 4.5; for turbidity threshold (L, M, H) 6.8: SIF pH 6.8; for turbidity threshold (L, M, H) 1.4: buffer pH 1.4 (SGF). The method, boiled down: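 Turbidity endpoint: concentration where optical density at 490, 535 and 650 nm exceeds 0.01, three-wavelength average used. Buffers at pH 1.5, 4.5, 6.8 and 7.4; DMSO serial dilutions of 25 mM stock spiked 1 μL into 99 μL buffer. Low <31.3, moderate 31.3–250, high >250 μM.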

Data set [4] deals with CYP2C19 (Homo sapiens, UniProt P33261). Kind of data set: CYP2C19 inhibition (fluorescent substrate). It is filed as in vitro ADME. The note with it: CYP2C19, CEC substrate; read-out: Cyp IC50 2C19. Put shortly: (§2)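 10-pt 1:1 serial dilution in co-factor mix (DMSO stock 100 mM); 10 min preincubation, 37 °C; reaction at 37 °C. Readout: fluorescent metabolite of probe substrate. IC50 from signal vs [compound].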
Sequence of CYP2C19 (P33261 whole entry): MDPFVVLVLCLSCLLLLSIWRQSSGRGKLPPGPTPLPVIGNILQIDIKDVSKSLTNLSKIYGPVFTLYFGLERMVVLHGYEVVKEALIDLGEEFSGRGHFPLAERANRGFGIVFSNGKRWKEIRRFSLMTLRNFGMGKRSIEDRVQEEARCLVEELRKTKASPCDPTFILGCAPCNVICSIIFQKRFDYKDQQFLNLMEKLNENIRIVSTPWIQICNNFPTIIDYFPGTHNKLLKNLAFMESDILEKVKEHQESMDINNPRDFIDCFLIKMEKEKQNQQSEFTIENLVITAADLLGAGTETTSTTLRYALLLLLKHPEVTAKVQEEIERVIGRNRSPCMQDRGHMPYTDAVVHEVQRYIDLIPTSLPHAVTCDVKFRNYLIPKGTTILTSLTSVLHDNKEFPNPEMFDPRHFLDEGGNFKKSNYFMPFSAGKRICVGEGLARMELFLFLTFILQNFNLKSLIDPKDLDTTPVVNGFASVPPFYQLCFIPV

Data set [5] has as its target CYP2C9 (Homo sapiens, UniProt P11712). Put plainly: CYP2C9 inhibition (fluorescent substrate). In kind it is in vitro ADME. The note with it: CYP2C9, MFC substrate; read-out: Cyp IC50 2C9. The method, boiled down: as §2

Sequence of B-Raf V600E (P15056 whole entry V600E): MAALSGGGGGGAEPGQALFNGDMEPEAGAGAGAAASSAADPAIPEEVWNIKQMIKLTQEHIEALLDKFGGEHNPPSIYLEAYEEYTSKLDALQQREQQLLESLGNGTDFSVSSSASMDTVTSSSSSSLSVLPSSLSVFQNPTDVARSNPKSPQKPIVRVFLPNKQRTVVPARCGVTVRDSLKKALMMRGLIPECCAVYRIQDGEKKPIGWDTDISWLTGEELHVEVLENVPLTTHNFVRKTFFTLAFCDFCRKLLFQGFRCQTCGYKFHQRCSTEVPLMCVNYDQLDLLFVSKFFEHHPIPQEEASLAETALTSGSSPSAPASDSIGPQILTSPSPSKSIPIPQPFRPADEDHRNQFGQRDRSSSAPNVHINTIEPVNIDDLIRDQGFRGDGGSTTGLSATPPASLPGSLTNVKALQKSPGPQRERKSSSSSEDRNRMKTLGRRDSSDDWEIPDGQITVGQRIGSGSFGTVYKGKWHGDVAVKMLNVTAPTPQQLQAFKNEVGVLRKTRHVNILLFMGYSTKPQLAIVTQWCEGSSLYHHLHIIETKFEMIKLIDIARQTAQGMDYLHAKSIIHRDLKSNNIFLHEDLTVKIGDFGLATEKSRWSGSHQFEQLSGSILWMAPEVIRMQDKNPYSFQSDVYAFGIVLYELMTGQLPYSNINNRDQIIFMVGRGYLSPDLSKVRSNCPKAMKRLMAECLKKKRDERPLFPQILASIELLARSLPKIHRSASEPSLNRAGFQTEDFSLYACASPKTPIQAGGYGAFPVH
Sequence of CYP2C9 (P11712 whole entry): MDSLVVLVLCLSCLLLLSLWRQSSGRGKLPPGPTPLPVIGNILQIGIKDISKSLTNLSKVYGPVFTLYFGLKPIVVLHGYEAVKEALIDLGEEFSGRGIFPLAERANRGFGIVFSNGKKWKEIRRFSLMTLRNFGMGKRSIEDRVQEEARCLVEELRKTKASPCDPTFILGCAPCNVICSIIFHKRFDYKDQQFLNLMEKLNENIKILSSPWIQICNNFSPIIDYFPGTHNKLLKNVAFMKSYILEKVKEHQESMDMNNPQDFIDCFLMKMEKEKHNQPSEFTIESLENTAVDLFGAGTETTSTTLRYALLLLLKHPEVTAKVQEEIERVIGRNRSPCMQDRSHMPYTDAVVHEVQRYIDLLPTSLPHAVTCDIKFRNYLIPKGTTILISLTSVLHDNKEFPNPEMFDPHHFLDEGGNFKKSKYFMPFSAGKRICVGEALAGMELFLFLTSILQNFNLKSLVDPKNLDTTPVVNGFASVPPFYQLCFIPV

For orientation: pIC50 means the IC50 on a negative log10 scale, so that one unit is a factor of ten. Take `Cc1cnc2[nH]cc(C(=O)c3c(F)ccc(NS(=O)(=O)c4c(F)cccc4F)c3F)c2c1` [P-2024, N-[2,4-Difluoro-3-(5-methyl-1H-pyrrolo[2,3-b]pyridine-3-carbonyl)-phenyl]-2,6-difluoro-benzenesulfonamide]: the pIC50 is > 7.00 in data set [1], > 8.00 in data set [2], < 5.00 in data set [4] and < 5.00 in data set [5]. Besides, the “turbidity threshold (L, M, H) 7.4” value in data set [3] was “M (moderate solubility if the threshold concentration is 31.3 μM to 250 μM)”. Also, the “turbidity threshold (L, M, H) 4.5” value in data set [3] was “L (low solubility if the threshold concentration is <31.3 04)”. Further, the “turbidity threshold (L, M, H) 6.8” value in data set [3] is listed as “M (moderate solubility if the threshold concentration is 31.3 μM to 250 μM)”. Also, the “turbidity threshold (L, M, H) 1.4” value in data set [3] was “M (moderate solubility if the threshold concentration is 31.3 μM to 250 μM)”.

For `COc1ncc(-c2cnc3[nH]cc(C(=O)c4c(F)ccc(NS(=O)(=O)c5ccccc5F)c4F)c3c2)cn1` [P-2041, N-{2,4-Difluoro-3-[5-(2-methoxy-pyrimidin-5-yl)-1H-pyrrolo[2,3-b]pyridine-3-carbonyl]-phenyl}-2-fluoro-benzenesulfonamide], the pIC50 in data set [1] was > 8.00. Moreover, the pIC50 in data set [2] was > 8.00. In data set [3], the “turbidity threshold (L, M, H) 7.4” value is “L (low solubility if the threshold concentration is <31.3 04)”; the “turbidity threshold (L, M, H) 4.5” value is listed as “L (low solubility if the threshold concentration is <31.3 04)”; the “turbidity threshold (L, M, H) 6.8” value is “L (low solubility if the threshold concentration is <31.3 04)”; the “turbidity threshold (L, M, H) 1.4” value is on record as “L (low solubility if the threshold concentration is <31.3 04)”. Moreover, the pIC50 in data set [4] was < 5.00. Moreover, in data set [5], the pIC50 was < 5.00.

Turning to `COc1ncc(-c2cnc3[nH]cc(C(=O)c4c(F)ccc(NS(=O)(=O)c5cc(F)ccc5F)c4F)c3c2)cn1` [P-2042, N-{2,4-Difluoro-3-[5-(2-methoxy-pyrimidin-5-yl)-1H-pyrrolo[2,3-b]pyridine-3-carbonyl]-phenyl}-2,5-difluoro-benzenesulfonamide], the pIC50 in data set [1] is > 8.00; in data set [2], > 8.00; in data set [4] it was < 5.00; in data set [5] it was 5.00 to 5.30. Also, the “turbidity threshold (L, M, H) 7.4” value in data set [3] is on record as “L (low solubility if the threshold concentration is <31.3 04)”. The “turbidity threshold (L, M, H) 4.5” value in data set [3] is on record as “L (low solubility if the threshold concentration is <31.3 04)”. Moreover, the “turbidity threshold (L, M, H) 6.8” value in data set [3] is reported as “L (low solubility if the threshold concentration is <31.3 04)”. For the same compound, in data set [3], the “turbidity threshold (L, M, H) 1.4” value is “L (low solubility if the threshold concentration is <31.3 04)”.

For `COc1ncc(-c2cnc3[nH]cc(C(=O)c4c(F)ccc(NS(=O)(=O)c5c(F)cccc5F)c4F)c3c2)cn1` [P-2043, N-{2,4-Difluoro-3-[5-(2-methoxy-pyrimidin-5-yl)-1H-pyrrolo[2,3-b]pyridine-3-carbonyl]-phenyl}-2,6-difluoro-benzenesulfonamide], the pIC50 in data set [1] was > 8.00; in data set [2], > 8.00; in data set [4] it was < 5.00; in data set [5], < 5.00. The “turbidity threshold (L, M, H) 7.4” value in data set [3] is listed as “M (moderate solubility if the threshold concentration is 31.3 μM to 250 μM)”. Moreover, in data set [3], the “turbidity threshold (L, M, H) 4.5” value is on record as “L (low solubility if the threshold concentration is <31.3 04)”. Moreover, the “turbidity threshold (L, M, H) 6.8” value in data set [3] was “L (low solubility if the threshold concentration is <31.3 04)”. For the same compound, the “turbidity threshold (L, M, H) 1.4” value in data set [3] was “L (low solubility if the threshold concentration is <31.3 04)”.

With `COc1ncc(-c2cnc3[nH]cc(C(=O)c4c(F)ccc(NS(=O)(=O)c5cccc(F)c5)c4F)c3c2)cn1` [P-2045, N-{2,4-Difluoro-3-[5-(2-methoxy-pyrimidin-5-yl)-1H-pyrrolo[2,3-b]pyridine-3-carbonyl]-phenyl}-3-fluoro-benzenesulfonamide], the pIC50 in data set [1] was > 7.00. For the same compound, in data set [2], the pIC50 is > 8.00. Moreover, in data set [3], the “turbidity threshold (L, M, H) 7.4” value is on record as “M (moderate solubility if the threshold concentration is 31.3 μM to 250 μM)”; the “turbidity threshold (L, M, H) 4.5” value is given as “L (low solubility if the threshold concentration is <31.3 04)”; the “turbidity threshold (L, M, H) 6.8” value is listed as “L (low solubility if the threshold concentration is <31.3 04)”; the “turbidity threshold (L, M, H) 1.4” value is reported as “L (low solubility if the threshold concentration is <31.3 04)”. Besides, in data set [4], the pIC50 was < 5.00. For the same compound, the negative logarithm of the IC50 (pIC50) in data set [5] is < 5.00.

Turning to `N#Cc1cnc2[nH]cc(C(=O)c3cccc(NS(=O)(=O)c4ccccc4F)c3F)c2c1` [P-2051, N-[3-(5-Cyano-1H-pyrrolo[2,3-b]pyridine-3-carbonyl)-2-fluoro-phenyl]-2-fluoro-benzenesulfonamide], the pIC50 in data set [1] is > 8.00; in data set [2], > 7.00; in data set [4], < 5.00; in data set [5] it was 5.00 to 5.30. The “turbidity threshold (L, M, H) 7.4” value in data set [3] is reported as “M (moderate solubility if the threshold concentration is 31.3 μM to 250 μM)”. The “turbidity threshold (L, M, H) 4.5” value in data set [3] is reported as “M (moderate solubility if the threshold concentration is 31.3 μM to 250 μM)”. In addition, in data set [3], the “turbidity threshold (L, M, H) 6.8” value is reported as “M (moderate solubility if the threshold concentration is 31.3 μM to 250 μM)”. For the same compound, in data set [3], the “turbidity threshold (L, M, H) 1.4” value is reported as “M (moderate solubility if the threshold concentration is 31.3 μM to 250 μM)”.

`N#Cc1cnc2[nH]cc(C(=O)c3cccc(NS(=O)(=O)c4cc(F)ccc4F)c3F)c2c1` [P-2052, N-[3-(5-Cyano-1H-pyrrolo[2,3-b]pyridine-3-carbonyl)-2-fluoro-phenyl]-2,5-difluoro-benzenesulfonamide]: in data set [1], the pIC50 is > 8.00. For the same compound, in data set [2], the pIC50 is > 8.00. Besides, in data set [3], the “turbidity threshold (L, M, H) 7.4” value is listed as “M (moderate solubility if the threshold concentration is 31.3 μM to 250 μM)”; the “turbidity threshold (L, M, H) 4.5” value was “L (low solubility if the threshold concentration is <31.3 04)”; the “turbidity threshold (L, M, H) 6.8” value is on record as “M (moderate solubility if the threshold concentration is 31.3 μM to 250 μM)”; the “turbidity threshold (L, M, H) 1.4” value is “L (low solubility if the threshold concentration is <31.3 04)”. Also, the negative logarithm of the IC50 (pIC50) in data set [4] was < 5.00. Moreover, the pIC50 in data set [5] was > 5.30.

Consider `N#Cc1cnc2[nH]cc(C(=O)c3cccc(NS(=O)(=O)c4cccc(F)c4)c3F)c2c1` [P-2053, N-[3-(5-Cyano-1H-pyrrolo[2,3-b]pyridine-3-carbonyl)-2-fluoro-phenyl]-3-fluoro-benzenesulfonamide], for which the negative logarithm of the IC50 (pIC50) is > 8.00 in data set [1], > 8.00 in data set [2], < 5.00 in data set [4] and 5.00 to 5.30 in data set [5]. For the same compound, in data set [3], the “turbidity threshold (L, M, H) 7.4” value is “M (moderate solubility if the threshold concentration is 31.3 μM to 250 μM)”. Further, in data set [3], the “turbidity threshold (L, M, H) 4.5” value is “L (low solubility if the threshold concentration is <31.3 04)”. In addition, in data set [3], the “turbidity threshold (L, M, H) 6.8” value was “M (moderate solubility if the threshold concentration is 31.3 μM to 250 μM)”. Moreover, the “turbidity threshold (L, M, H) 1.4” value in data set [3] is recorded as “L (low solubility if the threshold concentration is <31.3 04)”.
